The source of these data is PubChem BioAssay (NCI).

Some test systems named below: DU-145 prostate; HCT-116 colon; SK-OV-3 ovarian; 786-0 renal; SF-539 CNS; MDA-MB-435; RXF 393 renal; HOP-92 NSCLC; MDA-N; SK-MEL-28 melanoma; SK-MEL-2 melanoma; CAKI-1 renal; K-562 leukemia; MDA-MB-231 breast; KM12 colon; NCI/ADR-RES ovarian; T-47D breast; OVCAR-4 ovarian; NCI-H460 lung; RPMI-8226 leukemia.
What all share (experiment): NCI tumour cell line growth inhibition, 48 h

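1) Cells in 96-well plates. 2) Compound, 48 h, 5 concentrations. 3) Linear interpolation between surrounding doses. 4) Unreached endpoint = highest concentration. TGI: concentration producing complete growth inhibition.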

For `C=CCc1cc(C=C(C#N)C#N)cc(OC)c1O`, the TGI in the experiment with DU-145 prostate, in the experiment with HCT-116 colon, in the experiment with SK-OV-3 ovarian, in the experiment on 786-0 renal, in the experiment with SF-539 CNS and in the experiment with MDA-MB-435 was more than 100 µM throughout. Moreover, the TGI in the experiment with RXF 393 renal, in the experiment with HOP-92 NSCLC, in the experiment on MDA-N, in the experiment with SK-MEL-28 melanoma, with SK-MEL-2 melanoma and in the experiment on CAKI-1 renal was more than 100 µM throughout. For the same molecule, the TGI with K-562 leukemia, in the experiment with MDA-MB-231 breast, in the experiment with KM12 colon, with NCI/ADR-RES ovarian, with T-47D breast and in the experiment with OVCAR-4 ovarian was more than 100 µM in each case. Besides, the TGI in the experiment on NCI-H460 lung and in the experiment with RPMI-8226 leukemia was more than 100 µM each time.
In the case of `CC(C)COC(=O)OC(=O)c1ccc(N(C)Cc2cnc3nc(N)nc(N)c3n2)cc1`, the TGI is more than 100 µM in the experiment on DU-145 prostate; more than 100 µM with HCT-116 colon; more than 100 µM with SK-OV-3 ovarian; more than 100 µM in the experiment on 786-0 renal; more than 51.8 µM in the experiment with SF-539 CNS; more than 100 µM with MDA-MB-435. Besides, the TGI in the experiment with RXF 393 renal, in the experiment with HOP-92 NSCLC, in the experiment on MDA-N, with SK-MEL-28 melanoma, in the experiment on SK-MEL-2 melanoma and in the experiment with CAKI-1 renal was more than 100 µM throughout. Besides, the TGI in the experiment on K-562 leukemia, with MDA-MB-231 breast, in the experiment on KM12 colon, with NCI/ADR-RES ovarian, with T-47D breast and in the experiment on OVCAR-4 ovarian was more than 100 µM throughout. The TGI in the experiment on NCI-H460 lung and in the experiment with RPMI-8226 leukemia was more than 100 µM each time.
For `O=c1c(C2=NCCC2)c(-c2ccc[nH]2)[nH]n1-c1ccccc1`, the TGI in the experiment with DU-145 prostate, in the experiment on HCT-116 colon, with SK-OV-3 ovarian, with 786-0 renal, with SF-539 CNS and in the experiment with MDA-MB-435 was more than 100 µM each time. For the same molecule, the TGI with RXF 393 renal, in the experiment with HOP-92 NSCLC, in the experiment on MDA-N, in the experiment with SK-MEL-28 melanoma, in the experiment with SK-MEL-2 melanoma and in the experiment with CAKI-1 renal was more than 100 µM in each case. In addition, the TGI in the experiment on K-562 leukemia, with MDA-MB-231 breast, with KM12 colon, in the experiment on NCI/ADR-RES ovarian, in the experiment with T-47D breast and in the experiment on OVCAR-4 ovarian was more than 100 µM in each case. The TGI with NCI-H460 lung and in the experiment with RPMI-8226 leukemia was more than 100 µM in each case.
Consider `C[N+](C)(C)/N=C/c1ccc(O)c(O)c1`, for which the TGI with DU-145 prostate, in the experiment on HCT-116 colon, in the experiment on SK-OV-3 ovarian, with 786-0 renal, with SF-539 CNS and in the experiment with MDA-MB-435 was more than 100 µM each time. The TGI is more than 100 µM in the experiment with RXF 393 renal; more than 100 µM in the experiment on HOP-92 NSCLC; more than 100 µM in the experiment with MDA-N; more than 96.4 µM with SK-MEL-28 melanoma; more than 100 µM in the experiment with SK-MEL-2 melanoma; more than 100 µM in the experiment on CAKI-1 renal. In addition, the TGI with K-562 leukemia, in the experiment with MDA-MB-231 breast, in the experiment with KM12 colon, with NCI/ADR-RES ovarian, in the experiment on T-47D breast and with OVCAR-4 ovarian was more than 100 µM in each case. Also, the TGI in the experiment on NCI-H460 lung and with RPMI-8226 leukemia was more than 100 µM throughout.
Turning to `COc1cccc2c3ccccc3c3nc[nH]c3c12`, the TGI was more than 100 µM in the experiment on DU-145 prostate; more than 100 µM in the experiment on HCT-116 colon; more than 100 µM in the experiment with SK-OV-3 ovarian; more than 57.9 µM in the experiment on 786-0 renal; 52 µM in the experiment on SF-539 CNS; more than 94.6 µM in the experiment on MDA-MB-435. The TGI in the experiment with RXF 393 renal was more than 100 µM; with HOP-92 NSCLC, 61.9 µM; with MDA-N, more than 100 µM; in the experiment on SK-MEL-28 melanoma, more than 77.2 µM; in the experiment on SK-MEL-2 melanoma, more than 100 µM; with CAKI-1 renal, more than 100 µM. Also, the TGI is 28.4 µM in the experiment on K-562 leukemia; more than 79.2 µM in the experiment with MDA-MB-231 breast; more than 100 µM with KM12 colon; more than 100 µM with NCI/ADR-RES ovarian; more than 100 µM in the experiment on T-47D breast; more than 100 µM in the experiment on OVCAR-4 ovarian. For the same molecule, the TGI was more than 69.2 µM with NCI-H460 lung and 44.5 µM with RPMI-8226 leukemia.
Regarding `NC(=O)C(=CNC(=S)Nc1ccc(Cl)c(Cl)c1)C(N)=O`, the TGI in the experiment with DU-145 prostate, with HCT-116 colon, in the experiment with SK-OV-3 ovarian, with 786-0 renal, in the experiment on SF-539 CNS and with MDA-MB-435 was more than 100 µM in each case. Further, the TGI was more than 95.7 µM in the experiment with RXF 393 renal; more than 100 µM in the experiment with HOP-92 NSCLC; more than 100 µM in the experiment with MDA-N; more than 100 µM in the experiment with SK-MEL-28 melanoma; more than 100 µM in the experiment with SK-MEL-2 melanoma; more than 100 µM in the experiment with CAKI-1 renal. Also, the TGI in the experiment with K-562 leukemia was more than 100 µM; in the experiment with MDA-MB-231 breast, more than 100 µM; in the experiment with KM12 colon it was more than 100 µM; with NCI/ADR-RES ovarian, more than 100 µM; in the experiment with T-47D breast it was more than 72.9 µM; in the experiment with OVCAR-4 ovarian, more than 100 µM. In addition, the TGI in the experiment on NCI-H460 lung and in the experiment on RPMI-8226 leukemia was more than 100 µM each time.
Turning to `O=C(NNCC(F)(F)F)c1ccncc1`, the TGI in the experiment with DU-145 prostate, in the experiment with HCT-116 colon, in the experiment on SK-OV-3 ovarian, in the experiment with 786-0 renal, in the experiment with SF-539 CNS and in the experiment on MDA-MB-435 was more than 100 µM in each case. Also, the TGI with RXF 393 renal, with HOP-92 NSCLC, in the experiment on MDA-N, in the experiment on SK-MEL-28 melanoma, in the experiment with SK-MEL-2 melanoma and in the experiment with CAKI-1 renal was more than 100 µM throughout. In addition, the TGI in the experiment on K-562 leukemia, with MDA-MB-231 breast, in the experiment with KM12 colon, in the experiment on NCI/ADR-RES ovarian, in the experiment with T-47D breast and in the experiment on OVCAR-4 ovarian was more than 100 µM each time. For the same molecule, the TGI with NCI-H460 lung and with RPMI-8226 leukemia was more than 100 µM throughout.
